Entries after “also recorded” stand apart in the source; their conditions may differ.
What was measured:
[1] = test system: SPM formation in human peripheral blood; experiment: Human whole blood incubation with MTX, plasma SPM by LC-MS/MS lipid mediator profiling; type: cell-based; settings: MTX 100 nM, 37° C., 45 min
Procedure: Plasma was obtained by centrifugation and peripheral blood SPM concentrations were determined using LC-MS/MS based lipid mediator profiling. (A) OPLS-DA analysis of plasma SPM concentrations. Colored spherical areas display 95% confidence region of respective incubations. […] Results for A, B are representative of n=6 donors from three distinct experiments. […] Blood was then collected after 1 hour and SPM concentrations were determined using LC-MS/MS based lipid mediator profiling (D) oPLS-DA analysis of plasma SPM concentrations. Colored areas display 95% confidence region of respective incubations. […] Results are representative of n=4 mice per group and experiments were conducted on two distinct occasions.
Incubations were quenched and SPM were identified and quantified using LC-MS/MS-based lipid mediator profiling. Results are mean±SEM. n=6 volunteers per group.
Plasma was obtained from peripheral blood of healthy volunteers, patients and mouse following centrifugation at 1500×g for 10 min at room temperature. Paws were collected and immediately transferred to liquid nitrogen prior to homogenization in 1 ml ice cold MeOH and homogenized using a glass dounce. All samples for LC-MS/MS-based profiling were extracted using solid-phase extraction columns as in Walker, M. E., Souza, P. R., Colas, R. A. & Dalli, J. “13-Series resolvins mediate the leukocyte-platelet actions of atorvastatin and pravastatin in inflammatory arthritis.” FASEB J 31, 3636-3648 (2017), the contents of which are incorporated herein by reference. Prior to sample extraction, deuterated internal standards, representing each region in the chromatographic analysis (500 pg each) were added to facilitate quantification. Samples were kept at −20° C. for a minimum of 45 min to allow protein precipitation. Supernatants were subjected to solid phase extraction, methyl formate fraction collected, brought to dryness and suspended in phase (methanol/water, 1:1, vol/vol) for injection on a Shimadzu LC-20AD HPLC and a Shimadzu SIL-20AC autoinjector, paired with a QTrap 5500 or QTrap 6500 plus (Sciex). An Agilent Poroshell 120 EC-C18 column (100 mm×4.6 mm×2.7 μm) was kept at 50° C. and mediators eluted using a mobile phase consisting of methanol/water/acetic acid of 20:80:0.01 (vol/vol/vol) that was ramped to 50:50:0.01 (vol/vol/vol) over 0.5 min and then to 80:20:0.01 (vol/vol/vol) from 2 min to 11 min, maintained till 14.5 min and then rapidly ramped to 98:2:0.01 (vol/vol/vol) for the next 0.1 min. This was subsequently maintained at 98:2:0.01 (vol/vol/vol) for 5.4 min, and the flow rate was maintained at 0.5 ml/min. QTrap 5500 or QTrap 6500 plus were operated using a multiple reaction monitoring method as in Walker, M. E., Souza, P. R., Colas, R. A. & Dalli, J. “13-Series resolvins mediate the leukocyte-platelet actions of atorvastatin and pravastatin in inflammatory arthritis.” FASEB J 31, 3636-3648 (2017), the contents of which are incorporated herein by reference. Each lipid mediator was identified using established criteria including matching retention time to synthetic or authentic standards and at least 6 diagnostic ions (Walker, M. E., Souza, P. R., Colas, R. A. & Dalli, J. “13-Series resolvins mediate the leukocyte-platelet actions of atorvastatin and pravastatin in inflammatory arthritis.” FASEB J 31, 3636-3648 (2017), the contents of which are incorporated herein by reference).

[2] = test system: inflammatory arthritis in wild type (WT) mice; experiment: K/BxN serum inflammatory arthritis in wild type mice treated with MTX; type: in vivo
Procedure: (§1) Inflammatory arthritis was initiated in wild type (WT) and Alox15^−/− deficient mice by the administration of arthritogenic serum on days 0 and 2. […] Disease severity was assessed by measuring (A) disease activity using a 26-point clinical score (B) body weight and (C) paw edema. (D) Eight days post disease initiation joints were collected, leukocytes were liberated and the number of infiltrated leukocytes was determined using flow cytometry and fluorescently labelled antibodies. Results for A-C are mean±SEM and for D are percentage of vehicle n=7 mice per group. Results for D are representative of n=8 mice per group. Experiments were conducted on two distinct occasions. * p<0.05 vs Vehicle group for A-C using two-way ANOVA, for D using one-sample t test.
(§2) Inflammatory arthritis was initiated in wild type (WT) and Alox15^−/− mice by injecting K/BxN serum via intraperitoneal injection on days 0 and 2. […] Blood and joints were collected on day 8 and the concentrations of inflammatory eicosanoids in (A) plasma and (B) joints were determined using LC-MS/MS profiling.
(§3) Plasma was obtained from peripheral blood of healthy volunteers, patients and mouse following centrifugation at 1500×g for 10 min at room temperature. Paws were collected and immediately transferred to liquid nitrogen prior to homogenization in 1 ml ice cold MeOH and homogenized using a glass dounce. All samples for LC-MS/MS-based profiling were extracted using solid-phase extraction columns as in Walker, M. E., Souza, P. R., Colas, R. A. & Dalli, J. “13-Series resolvins mediate the leukocyte-platelet actions of atorvastatin and pravastatin in inflammatory arthritis.” FASEB J 31, 3636-3648 (2017), the contents of which are incorporated herein by reference. Prior to sample extraction, deuterated internal standards, representing each region in the chromatographic analysis (500 pg each) were added to facilitate quantification. Samples were kept at −20° C. for a minimum of 45 min to allow protein precipitation. Supernatants were subjected to solid phase extraction, methyl formate fraction collected, brought to dryness and suspended in phase (methanol/water, 1:1, vol/vol) for injection on a Shimadzu LC-20AD HPLC and a Shimadzu SIL-20AC autoinjector, paired with a QTrap 5500 or QTrap 6500 plus (Sciex). An Agilent Poroshell 120 EC-C18 column (100 mm×4.6 mm×2.7 μm) was kept at 50° C. and mediators eluted using a mobile phase consisting of methanol/water/acetic acid of 20:80:0.01 (vol/vol/vol) that was ramped to 50:50:0.01 (vol/vol/vol) over 0.5 min and then to 80:20:0.01 (vol/vol/vol) from 2 min to 11 min, maintained till 14.5 min and then rapidly ramped to 98:2:0.01 (vol/vol/vol) for the next 0.1 min. This was subsequently maintained at 98:2:0.01 (vol/vol/vol) for 5.4 min, and the flow rate was maintained at 0.5 ml/min. QTrap 5500 or QTrap 6500 plus were operated using a multiple reaction monitoring method as in Walker, M. E., Souza, P. R., Colas, R. A. & Dalli, J. “13-Series resolvins mediate the leukocyte-platelet actions of atorvastatin and pravastatin in inflammatory arthritis.” FASEB J 31, 3636-3648 (2017), the contents of which are incorporated herein by reference. […]

[3] = test system: inflammatory arthritis in Alox15-/- mice; experiment: K/BxN serum inflammatory arthritis in Alox15-/- mice treated with MTX; type: in vivo
Procedure: as §1, §2, §3

[4] = MTX 25 mg/kg i.p. days 3, 5 and 7
[5] = Alox15-/- mice, MTX 25 mg/kg i.p. days 3, 5 and 7

Compound: CN(Cc1cnc2nc(N)nc(N)c2n1)c1ccc(C(=O)N[C@@H](CCC(=O)O)C(=O)O)cc1 [MTX, Methotrexate]
- mediators from the DHA, n-3 DPA and EPA bioactive metabolomes including PDX, RvD1 and RvE3 [1]: upregulation
- plasma SPM concentrations [1]: upregulates; also recorded: increase
- plasma 4S,14S-diHDHA concentration, Mean ± SEM ([1]; n=6): 2.82 ± 0.56
- plasma 5S,15S-diHETE concentration, Mean ± SEM ([1]; n=6): 5.32 ± 0.43
- plasma 7S,14S-diHDHA concentration, Mean ± SEM ([1]; n=6): 0.00 ± 0.00
- plasma 10S,17S-diHDPA concentration, Mean ± SEM ([1]; n=6): 0.55 ± 0.16
- plasma 13,14-dehydro-15-oxo-LXA4 concentration, Mean ± SEM ([1]; n=6): 82.74 ± 32.78
- plasma 14-oxo-MaR1 concentration, Mean ± SEM ([1]; n=6): 0.00 ± 0.00
- plasma 14S-diHDPA concentration, Mean ± SEM ([1]; n=6): 2.04 ± 0.41
- plasma 15-oxo-LXA4 concentration, Mean ± SEM ([1]; n=6): 3.78 ± 0.56
- plasma 15R-LXB4 concentration, Mean ± SEM ([1]; n=6): 2.13 ± 0.45
- plasma 17R-PD1 concentration, Mean ± SEM ([1]; n=6): 0.96 ± 0.39
- plasma 17R-RvD1 concentration, Mean ± SEM ([1]; n=6): 7.50 ± 1.97
- plasma 17R-RvD3 concentration, Mean ± SEM ([1]; n=6): 2.68 ± 0.67
- plasma 22-OH-MaR1 concentration, Mean ± SEM ([1]; n=6): 18.44 ± 4.31
- plasma 22-OH-PD1 concentration, Mean ± SEM ([1]; n=6): 7.86 ± 2.61
- plasma LXA4 concentration, Mean ± SEM ([1]; n=6): 0.55 ± 0.10
- plasma LXB4 concentration, Mean ± SEM ([1]; n=6): 13.42 ± 2.93
- plasma MaR1 concentration, Mean ± SEM ([1]; n=6): 24.53 ± 3.12
- plasma MaR1n-3 DPA concentration, Mean ± SEM ([1]; n=6): 1.09 ± 0.29
- plasma MaR2 concentration, Mean ± SEM ([1]; n=6): 0.00 ± 0.00
- plasma MaR2n-3 DPA concentration, Mean ± SEM ([1]; n=6): 7.97 ± 0.87
- plasma PD1 concentration, Mean ± SEM ([1]; n=6): 2.11 ± 0.24
- plasma PD1n-3 DPA concentration, Mean ± SEM ([1]; n=6): 0.34 ± 0.10
- plasma PD2n-3 DPA concentration, Mean ± SEM ([1]; n=6): 3.01 ± 1.23
- plasma PDx concentration, Mean ± SEM ([1]; n=6): 1.55 ± 0.22
- plasma RvD1 concentration, Mean ± SEM ([1]; n=6): 9.09 ± 1.13
- plasma RvD1n-3 DPA concentration, Mean ± SEM ([1]; n=6): 5.43 ± 1.10
- plasma RvD2 concentration, Mean ± SEM ([1]; n=6): 0.32 ± 0.13
- plasma RvD2n-3 DPA concentration, Mean ± SEM ([1]; n=6): 3.58 ± 1.16
- plasma RvD3 concentration, Mean ± SEM ([1]; n=6): 3.57 ± 1.38
- plasma RvD4 concentration, Mean ± SEM ([1]; n=6): 1.44 ± 0.59
- plasma RvD5 concentration, Mean ± SEM ([1]; n=6): 1.05 ± 0.22
- plasma RvD5n-3 DPA concentration, Mean ± SEM ([1]; n=6): 1.26 ± 0.24
- plasma RvD6 concentration, Mean ± SEM ([1]; n=6): 1.07 ± 0.21
- plasma RvE1 concentration, Mean ± SEM ([1]; n=6): 1.15 ± 0.32
- plasma RvE2 concentration, Mean ± SEM ([1]; n=6): 3.82 ± 1.15
- plasma RvE3 concentration, Mean ± SEM ([1]; n=6): 4.49 ± 0.23
- plasma RvT1 concentration, Mean ± SEM ([1]; n=6): 9.18 ± 2.50
- plasma RvT2 concentration, Mean ± SEM ([1]; n=6): 1.63 ± 0.35
- plasma RvT3 concentration, Mean ± SEM ([1]; n=6): 0.60 ± 0.24
- plasma RvT4 concentration, Mean ± SEM ([1]; n=6): 0.36 ± 0.15
- paw edema [2, 4]: decrease
- weight loss [2, 4]: improvement
- clinical scores ([2]; MTX 25 mg/kg i.p. days 3, 5 and 7, 26-point score): significant reduction
- number of eosinophils, neutrophils, monocytes and macrophages recruited to the joint ([2]; day 8, flow cytometry): decrease
- inflammatory eicosanoid concentrations ([2]; plasma and joints, day 8, LC-MS/MS): regulates; also recorded: reduction
- disease activity [3, 5]: no longer regulated
- weight loss [3, 5]: no longer regulated
- peripheral blood and circulating eicosanoid concentrations ([3]; Alox15-/- mice, day 8, LC-MS/MS): lost and no longer regulated
- leukocyte trafficking ([3]; Alox15-/- mice, day 8, flow cytometry): no longer regulated
- protective actions of MTX ([3]; mice lacking the ALOX15 enzyme): lost
